Measured values reported in US7250417B2, “Arylmethyl triazolo- and imidazopyrazines as c-Met inhibitors” (Sugen Inc., priority 2003, dated 2007).
“And” between values parts separate entries of the source, which are not always exact repeats. Equal values may be shown once.

Molecular target: T1, c-MET (purified GST fusion protein containing the Met kinase domain) (Homo sapiens, UniProt P08581)
T1 construct: Purified GST fusion protein containing the Met kinase domain, Sugen, Inc
Experiment: Met transphosphorylation assay (ELISA, poly(Glu,Tyr) 4:1 substrate)
Assay type: biochemical
Conditions: purified GST-Met kinase domain 10 ng/well
Procedure: Met Transphosphorylation Assay
This assay is used to measure phosphotyrosine levels on a poly(glutamic acid:tyrosine (4:1)) substrate as a means for identifying agonists/antagonists of met transphosphorylation of the substrate.
• 1. […] PBS, Gibco Catalog #450-1300EB • 4. 50 mM HEPES • 5. […] Purified GST fusion protein containing the Met kinase domain, Sugen, Inc. • 7. TBST Buffer. • 8. 10% aqueous (MilliQue H2O) DMSO. • 9. […] 2× Kinase Dilution Buffer: for 100 ml, mix 10 mL 1 M HEPES at pH 7.5 with 0.4 mL 5% BSA/PBS, 0.2 mL 0.1 M sodium orthovanadate and 1 mL 5M sodium chloride in 88.4 mL dH2O. • 11. 4× ATP Reaction Mixture: for 10 mL, mix 0.4 mL 1 M manganese chloride and 0.02 mL 0.1 M ATP in 9.56 mL dH2O. • 12. 4× Negative Controls Mixture: for 10 mL, mix 0.4 mL 1 M manganese chloride in 9.6 mL dH2O. • 13. […] 500 mM EDTA. • 15. Antibody Dilution Buffer: for 100 mL, mix 10 mL 5% BSA/PBS, 0.5 mL 5% Camation Instant Milk® in PBS and 0.1 mL 0.1 M sodium orthovanadate in 88.4 mL TBST. • 16. Rabbit polyclonal antophosphotyrosine antibody, Sugen, Inc. • 17. Goat anti-rabbit horseradish peroxidase conjugated antibody, Biosource, Inc. • 18. ABTS Solution: for 1 L, mix 19.21 g citric acid, 35.49 g Na2HPO4 and 500 mg ABTS with sufficient dH2O to make 1 L. • 19. ABTS/H2O2: mix 15 mL ABST solution with 2ILL H2O2 five minutes before use. • 20. 0.2 M HCl Procedure: • 1. Coat ELISA plates with 2 μg Poly(Glu-Tyr) in 100 pL PBS, store overnight at 4° C. • 2. Block plate with 150 μL of 5% BSA/PBS for 60 min. • 3. Wash plate twice with PBS, once with 50 mM Hepes buffer pH 7.4. • 4. Add 50 μl of the diluted kinase to all wells. (Purified kinase is diluted with Kinase Dilution Buffer. Final concentration should be 10 ng/well.) • 5. Add 25 μL of the test compound (in 4% DMSO) or DMSO alone (4% in dH2O) for controls to plate. • 6. Incubate the kinase/compound mixture for 15 minutes. • 7. Add 25 μL of 40 mM MnCl2to the negative control wells. • 8. Add 25 μL ATP/MnCl2 mixture to the all other wells (except the negative controls). Incubate for 5 min. • 9. Add 25 μL 500 mM EDTA to stop reaction. • 10. Wash plate 3× with TBST. 11. Add 100 μL rabbit polyclonal anti-Ptyr diluted 1:10,000 in Antibody Dilution Buffer to each well. Incubate, with shaking, at room temperature for one hour. • 12. Wash plate 3× with TBST. • 13. […] Add 100 μL per well and incubate at room temperature, with shaking, for one hour. • 14. Wash plate 1× with PBS. • 15. Add 100 μl of ABTS/H2O2 solution to each well. • 16. If necessary, stop the development reaction with the addition of 100 μl of 0.2M HCl per well. • 17.

T1 sequence (P08581 1078-1345 limits assumed): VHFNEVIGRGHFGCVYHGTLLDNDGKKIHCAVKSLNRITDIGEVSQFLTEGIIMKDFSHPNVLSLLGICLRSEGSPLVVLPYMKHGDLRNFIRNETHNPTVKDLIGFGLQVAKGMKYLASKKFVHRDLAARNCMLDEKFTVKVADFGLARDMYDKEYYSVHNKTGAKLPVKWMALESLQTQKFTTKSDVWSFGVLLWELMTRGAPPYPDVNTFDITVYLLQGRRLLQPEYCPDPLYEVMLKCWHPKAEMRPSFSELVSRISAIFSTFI

Compound | IC50
Fc1ccc(Cn2cnc3ncc(-c4ccc(OCCN5CCOCC5)cc4)nc32)cc1 [Example 7, 1-(4-Fluoro-benzyl)-6-[4-(2-morpholin-4-yl-ethoxy)-phenyl]-1H-imidazo[4,5-b]pyrazine] | > 20000 nM
Fc1ccc(Cn2nnc3ncc(Br)nc32)cc1 [Example 8, 6-Bromo-1-(4-fluoro-benzyl)-1H-[1,2,3]triazolo[4,5-b]pyrazine] | 310 nM and 1710 nM
Fc1ccc(Cn2nnc3ncc(-c4cccc(OCCN5CCOCC5)c4)nc32)cc1 [Example 10, 1-(4-Fluoro-benzyl)-6-[3-(2-morpholin-4-yl-ethoxy)-phenyl]-1H-[1,2,3]triazolo[4,5-b]pyrazine] | 1000 nM
Fc1ccc(Cn2nnc3ncc(-c4ccc(OCCN5CCOCC5)cc4)nc32)cc1 [Example 11, 1-(4-Fluoro-benzyl)-6-[4-(2-morpholin-4-yl-ethoxy)-phenyl]-1H-[1,2,3]triazolo[4,5-b]pyrazine] | 170 nM
Fc1ccc(Cn2nnc3ncc(-c4cc5ccccc5[nH]4)nc32)cc1 [Example 12, 1-(4-Fluoro-benzyl)-6-(1H-indol-2-yl)-1H-[1,2,3]triazolo[4,5-b]pyrazine] | 1150 nM
COc1ccc(Cn2cnc3ncc(Br)cc32)cc1 [Example 13, 6-Bromo-1-(4-methoxy-benzyl)-1H-imidazo[4,5-b]pyridine] | > 20000 nM
Oc1ccc(Cn2cnc3ncc(Br)cc32)cc1 [Example 14, 4-(6-Bromo-imidazo[4,5-b]pyridin-1-ylmethyl)-phenol] | 9600 nM

Next, values leading:

IC50 | Compound
150 nM | Oc1ccc(Cn2cnc3ncc(-c4cccs4)nc32)cc1 [Example 1, 4-(6-Thiophen-2-yl-imidazo[4,5-b]pyrazin-1-ylmethyl)-phenol]
1790 nM | COc1ccc(Cn2cnc3ncc(-c4ccc(F)cc4)nc32)cc1 [Example 2, 6-(4-Fluoro-phenyl)-1-(4-methoxy-benzyl)-1H-imidazo[4,5-b]pyrazine]
> 20000 nM | Fc1ccc(Cn2cnc3ncc(-c4cccs4)nc32)cc1 [Example 4, 1-(4-Fluoro-benzyl)-6-thiophen-2-yl-1 H-imidazo[4,5-b]pyrazine]
> 20000 nM | Fc1ccc(Cn2cnc3ncc(-c4ccc(F)cc4)nc32)cc1 [Example 5, 1-(4-Fluoro-benzyl)-6-(4-fluoro-phenyl)-1H-imidazo[4,5-b]pyrazine]
> 20000 nM | Fc1ccc(Cn2cnc3ncc(-c4cccc(OCCN5CCOCC5)c4)nc32)cc1 [Example 6, 1-(4-Fluoro-benzyl)-6-[3-(2-morpholin-4-yl-ethoxy)-phenyl]-1H-imidazo[4,5-b]pyrazine]
160 nM | Fc1ccc(Cn2nnc3ncc(-c4cccs4)nc32)cc1 [Example 9, 1-(4-Fluoro-benzyl)-6-thiophen-2-yl-1H-[1,2,3]triazolo[4,5-b]pyrazine]
